From patent publication US20070167412A1, “HALOCOMBSTATINS AND METHODS OF SYNTHESIS THEREOF” (ARIZONA BOARD OF REGENTS, priority 2003, published 2007)
≈ marks a conversion by molar mass, not a printed value.

Legend:
[1] = tested on: human umbilical vein endothelial cells (HUVEC); experiment: HUVEC growth inhibition, sulforhodamine B assay; assay type: cell-based; conditions: HUVEC
Method: In vitro Matrigel antiangiogenesis assays were implemented according to the Developmental Therapeutics Program NCI/NIH protocols known to one of skill in the art. Matrigel, a basement membrane matrix, was obtained from BD Biosciences. Growth inhibition and cord formation assays were Conducted using human umbilical vein endothelial cells obtained from GlycoTeCh. HUVEC cells were grown in EGM-2 medium.
The standard sulforhodamine B assay (see Cancer Cell Line Procedures above) was used to evaluate results using HUVEC cells. IC50 or ED50 (drug concentration causing 50% inhibition) was calculated from the plotted data.

SW1736 = experiment: human anaplastic thyroid carcinoma cell line inhibition; assay type: cell-based; conditions: Homo sapiens, SW-1736
Method: (§1) Inhibition of human cancer cell growth was assessed using the National Cancer Institute's standard sulforhodamine B assay. After 48 hours, the plates were fixed with trichloracetic acid, stained with sulforhodamine B and read with an automated microplate reader. A growth inhibition of 50% (GI50 or the drug concentration causing a 50% reduction in the net protein increase) was calculated from optical density data with Inmunosoft software. Inhibition of the mouse leukemia P388 cells was assessed in a 10% horse serum/Fisher medium soution for 24 hours, followed by a 48 hour incubation with serial dilutions of the compounds. Cell growth inhibition (ED50) was then calculated using a Z1 Becleman/Coulter particle counter.

KAT-4 = experiment: as above; assay type: cell-based; conditions: Homo sapiens, KAT-4
Method: as §1

[2] = tested on: human umbilical vein endothelial cells (HUVEC); experiment: Matrigel cord formation assay; assay type: cell-based; set-up: key to Lengths of Cords: −: No Cords; +: Small; ++: ˜50% of Control; +++: Same as Control; conditions: 24 hours, compared to untreated controls
Summary of the method: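 HUVEC grown in EGM-2, seeded at 2×10^5 cells/ml onto polymerized Matrigel with test compounds. After 24 hours, cord length and junction number imaged and measured relative to untreated controls.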

Colon KM20L2 = experiment: human cancer cell growth inhibition, sulforhodamine B assay; assay type: cell-based; conditions: Homo sapiens, KM-20L2; Table I; 48 hours; read-out: Human cancer cell line inhibition (GI50) Colon KM20L2
Summary of the method: (§2)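 Read-out: sulforhodamine B staining quantified by automated microplate reader. Protocol follows the National Cancer Institute standard, with fixation in trichloracetic acid at the end of a 48-hour incubation.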

Lung-NSC NCI-H460 = experiment: as above; assay type: cell-based; conditions: Homo sapiens, NCI-H460; Table I; 48 hours; read-out: Human cancer cell line inhibition (GI50) Lung-NSC NCI-H460
Summary of the method: as §2

CNS SF268 = experiment: as above; assay type: cell-based; conditions: Homo sapiens, SF-268; Table I; 48 hours; read-out: Human cancer cell line inhibition (GI50) CNS SF268
Summary of the method: as §2

Prostate DU-145 = experiment: as above; assay type: cell-based; conditions: Homo sapiens, DU-145; Table I; 48 hours; read-out: Human cancer cell line inhibition (GI50) Prostate DU-145
Summary of the method: as §2

Pancreas BXPC-3 = experiment: as above; assay type: cell-based; conditions: Homo sapiens, BXPC-3; Table I; 48 hours; read-out: Human cancer cell line inhibition (GI50) Pancreas-a BXPC-3
Summary of the method: as §2

Breast MCF-7 = experiment: as above; assay type: cell-based; conditions: Homo sapiens, MCF7; Table I; 48 hours; read-out: Human cancer cell line inhibition (GI50) Breast adn MCF-7
Summary of the method: as §2

purified tubulin = tested on: T1, purified tubulin; experiment: inhibition of tubulin polymerization (turbidimetry); assay type: biochemical; conditions: 10 μM tubulin, GTP 0.4 mM, 30° C., extent after 20 minutes; read-out: Inhibition of polymerization IC50 ± S.D.
T1 construct: other: 10 μM tubulin, GTP 0.4 mM, 30° C., extent after 20 minutes
Method: Tubulin polymerization was evaluated by turbidimetry at 350 nm using Beckman DU7400/7500 spectrophotometers as described in detail elsewhere. […] Varying concentrations of drug were preincubated with 10 μM:M ([…]) purified tubulin (See Hamel, E., et al., Separation of Active Tubulin and Microtubule-associated Proteins by Ultracentrifiigation and Isolation of a Component Causing the Formation of Microtubule Bundles, Biochemistry 1984, 23, 4173-4184). Samples were chilled on ice, GTP (0.4 mM) was added, and polymerization was followed at 30° C. The parameter measured was extent of the reaction after 20 minutes. Coichicine binding was measured as described in detail previously. Reaction mixtures contained 1.0 μM :M tubulin, 5.0:M, [^3H]colchicine (from Dupont), and inhibitor at 1.0 μM:M. Incubation was for 10 minutes at 37° C.
Tubulin Evaluations: Tubulin polymerization was evaluated by turbidimetry at […] using Beckman DU7400/7500 spectrophotometers as known to one of skill in the art. Varying concentrations of the compound were preincubated with 10 μM. […]

## COc1ccc(/C=C\c2cc(I)c(OC)c(OC)c2)cc1O [Compound 14a, 3-Iodo-4,4′,5-trimethoxy-3′-hydroxy-z-stilbene]
[1]; 0.00001 μg/ml
  Relative % Growth: 90%
[1]; 0.0001 μg/ml
  Relative % Growth: 18%
[1]; 0.001 μg/ml
  Relative % Growth: 14%
[1]; 0.01 μg/ml
  Relative % Growth: 14%
[1]; Homo sapiens, Table V, read-out: Human Umbilical Vein Endothelial Cell (HUVEC) Inhibition Values (GI50)
  GI50: 0.04 ng/mL (≈ 0.097 nM)
SW1736
  GI50: 2200 ng/mL (≈ 5340 nM)
KAT-4
  GI50: 89 to 140 ng/mL (≈ 216 to 340 nM)
[2]; 0.001 μg/ml
  Lengths of Cords: +
[2]; 0.01 μg/ml
  Lengths of Cords: −
Colon KM20L2
  GI50: 150 ng/mL (≈ 364 nM)
Lung-NSC NCI-H460
  GI50: 0.19 ng/mL (≈ 0.461 nM)
CNS SF268
  GI50: 0.35 ng/mL (≈ 0.849 nM)
Prostate DU-145
  GI50: 0.52 ng/mL (≈ 1.26 nM)
Pancreas BXPC-3
  GI50: 110 ng/mL (≈ 267 nM)
Breast MCF-7
  GI50: 0.22 ng/mL (≈ 0.534 nM)
Purified tubulin
  IC50: 1600 ± 200 nM
